Where two headings read alike, the source gives them in different places.
Key:
activated PSCs = experiment: Apoptosis markers in activated PSCs, TRAILPEG versus conventional toxic agents; format: cell-based, human; conditions: 48 hr, DOX 100 nM, CIS 10 μM, H2O2 10 μM
[1] = rodents; cited from earlier work
[2] = humans; cited from earlier work
EtOH-activated PSCs = experiment: Caspase 3/7 assay in EtOH-activated PSCs; format: cell-based, human; conditions: alcohol-activated PSCs; different concentrations (0-10^3 ng/mL), alcohol still present in culture
Protocol: Caspase 3/7 activities were measured by caspase3/7 assay kit (Promega) according to the manufacturer's protocol. The luminescence of each sample was measured on a plate reader (Bio-Tek Instruments Inc) with parameters of 1 min lag time and 0.5 sec/well read time (n=4).
To investigate TRAIL-induced apoptosis in alcohol-activated PSCs, 2×10^4 cells were cultured for overnight in a 96-well plate and then activated with 50 mM EtOH for 48 h. […] Apoptosis was measured by MTT cell death assay and caspase 3/7 assay as described above.

| Compound | killing of activated PSCs by conventional toxic agents (activated PSCs) | other results |
| --- | --- | --- |
| N.N.[Cl][Pt][Cl] [cisplatin] | difficult to kill |  |
| COc1cccc2c1C(=O)c1c(O)c3c(c(O)c1C2=O)C[C@@](O)(C(=O)CO)C[C@@H]3O[C@H]1C[C@H](N)[C@H](O)[C@H](C)O1 [doxorubicin] | difficult to kill |  |
| OO [hydrogen peroxide] | difficult to kill |  |
| TRAIL: TNF (Tumor Necrosis Factor)-related apoptosis-inducing ligand, protein ligand that induces apoptosis |  | t1/2 [1]: less than 5 min; t1/2 [2]: < 30 min |
| conatumumab: human anti-DR5 agonistic antibody (Creative Biolabs) |  | apoptosis (caspase 3/7 activity, FIG. 9) (EtOH-activated PSCs): induced strong apoptosis dose-dependently |
